According to patent US20070004724A1, “(+)-(2S,3s)-2-(3-chlorophenyl)-3,5,5-trimethyl-2-morpholinor for treating anxiety” (priority 2003, published 2007):
Counter-ions that a name gives are not always drawn.

Experiments:
[1] = system: Male Sprague Dawley rats; experiment: Social interaction test in rats, chronic study; type: in vivo, rat; conditions: for Number of line crossings: motor activity; for Number of line crossings / Time spent in active social interaction: average±s.e.
Experimental: (§1) Social Interaction Test in Rats [Animal Models for Predicting Clinical Efficacy of Anxiolytic Drugs: Social Behaviour. Neuropsychobiology. 13 (1-2) 55-62, 1985]
(§2) Male Sprague Dawley rats (350-400 g at day of test, Charles River, Italy) were individually housed for five days before the test session. The 15 minutes social interaction test was performed between 9:00 to 14:00. Pairs of rats, weight and treatment matched, were placed in the test arena under high light condition. Active social interaction (sniffing, following, grooming, biting, boxing, crawling over and under) and motor activity, in terms of line crossing were scored by an observer blind to the drug treatment. The animals were treated orally with vehicle (2 ml/kg) or with the hydrochloride salt of the compound of formula (I) at 3, 10 and 30 mg/kg, 45 minutes prior to the test (acute study), or for 20 days twice a day and with a final treatment given on day 21, the last treatment given 45 minutes before the test (chronic study). An additional group of rats (positive control group) received a single oral dose of chlordiazepoxide (CDP) 4 mg/kg 1 hour before testing.
The results of the chronic study are given below in Table 3 (values given as average±s.e.), with the data for social interaction also illustrated in FIG. 1.

[2] = molecular target: T1, dopamine (DA) uptake, synaptosomes from rat caudoputamen (Rattus norvegicus, UniProt P23977); experiment: In vitro synaptosomal uptake of [3H]-dopamine; type: biochemical; conditions: [3H]-dopamine uptake, mean ± SEM of 3 experiments
T1 construct: Synaptosomes for use in obtaining in vitro uptake data were prepared from hypothalamus or striatum; from tissue; host or cells: rat caudoputamen (striatum) synaptosomes
T1 sequence (P23977 whole entry): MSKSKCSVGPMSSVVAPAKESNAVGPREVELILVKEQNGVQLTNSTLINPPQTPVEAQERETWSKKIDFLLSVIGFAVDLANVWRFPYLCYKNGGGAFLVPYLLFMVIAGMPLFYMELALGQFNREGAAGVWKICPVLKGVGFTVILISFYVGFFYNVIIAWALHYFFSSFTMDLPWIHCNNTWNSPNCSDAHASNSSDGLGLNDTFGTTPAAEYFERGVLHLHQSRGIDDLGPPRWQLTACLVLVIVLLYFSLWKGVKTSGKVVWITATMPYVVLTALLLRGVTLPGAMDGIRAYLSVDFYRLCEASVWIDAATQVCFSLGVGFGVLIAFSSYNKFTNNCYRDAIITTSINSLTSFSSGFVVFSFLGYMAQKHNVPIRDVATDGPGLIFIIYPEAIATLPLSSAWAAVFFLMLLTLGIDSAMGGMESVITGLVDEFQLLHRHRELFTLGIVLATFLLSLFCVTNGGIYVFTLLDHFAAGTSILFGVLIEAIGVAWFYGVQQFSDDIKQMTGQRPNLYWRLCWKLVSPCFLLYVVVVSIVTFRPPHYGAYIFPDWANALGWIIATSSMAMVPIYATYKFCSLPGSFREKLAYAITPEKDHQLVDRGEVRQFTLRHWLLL
Experimental: In vitro uptake was determined, as reported previously, using synaptosomes prepared from rat caudoputamen (for dopamine uptake) and hypothalamus (for NA and serotonin uptake) using [^3H]-dopamine, [^3H]-NA and [^3H]-serotonin as transport substrates, respectively. See Eckhardt, S. B., R. A. Maxwell, and R. M. Ferris, A Structure-Activity Study of the Transport Sites for the Hypothalamic and Striatal Catecholamine Uptake Systems. Similarities and differences. Molecular Pharmacology, 21: p. 374-9, 1982.
Synaptosomes for use in obtaining in vitro uptake data were prepared from hypothalamus or striatum by gently homogenizing the tissue in a 0.3 M sucrose/25 mM Tris pH 7.4 buffer containing iproniazid phosphate to inhibit monoamine oxidase. The homogenate was centrifuged at 1100×g at 4° C. for 10 min and the supernatant was used for uptake studies. […] Under these conditions uptake was linear with respect to both for substrate and tissue (with <5% total substrate transported). Non-specific uptake was defined as uptake at 0° C. [^3H]-substrate, which had been transported into synaptosomes, was separated from free [^3H]-substrate by filtration over GF/B filters and washing with cold Krebs-Henseleit buffer. The filters were counted for tritum in a liquid scintillation spectrometer.

[3] = molecular target: T2, serotonin uptake, synaptosomes from rat hypothalamus (Rattus norvegicus, UniProt P31652); experiment: In vitro synaptosomal uptake of [3H]-serotonin; type: biochemical
T2 construct: Synaptosomes for use in obtaining in vitro uptake data were prepared from hypothalamus or striatum; from tissue; host or cells: rat hypothalamus synaptosomes
T2 sequence (P31652 whole entry): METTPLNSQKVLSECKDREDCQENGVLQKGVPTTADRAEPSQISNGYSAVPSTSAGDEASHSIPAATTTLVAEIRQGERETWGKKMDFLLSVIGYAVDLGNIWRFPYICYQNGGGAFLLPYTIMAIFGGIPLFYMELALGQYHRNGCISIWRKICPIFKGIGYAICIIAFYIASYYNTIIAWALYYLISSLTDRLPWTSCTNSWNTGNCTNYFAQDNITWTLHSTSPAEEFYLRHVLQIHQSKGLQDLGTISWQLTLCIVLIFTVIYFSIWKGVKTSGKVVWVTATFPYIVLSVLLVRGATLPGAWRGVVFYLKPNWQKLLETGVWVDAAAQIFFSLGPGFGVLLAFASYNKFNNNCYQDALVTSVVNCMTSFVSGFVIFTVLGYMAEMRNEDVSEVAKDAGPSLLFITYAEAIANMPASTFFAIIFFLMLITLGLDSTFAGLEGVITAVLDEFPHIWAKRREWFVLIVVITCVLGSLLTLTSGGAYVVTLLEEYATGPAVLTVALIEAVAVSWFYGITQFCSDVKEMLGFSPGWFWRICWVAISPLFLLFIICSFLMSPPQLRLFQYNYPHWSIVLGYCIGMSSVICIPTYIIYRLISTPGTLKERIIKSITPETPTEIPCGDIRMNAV
Text: Similarities and differences. Molecular Pharmacology, 21: p.

[4] = system: Male Sprague Dawley rats; experiment: Social interaction test in rats, acute study; type: in vivo; conditions: acute rat social interaction study
Experimental: as §1, §2
The results for social interaction in the acute study are illustrated in FIG. 2.

[5] = system: cell-lines expressing human monoamine transporters; experiment: Compound-induced cytotoxicity in the transporter cell-lines; type: cell-based; conditions: at any of the concentrations causing reuptake inhibition
[6] = system: CD-1 mice; experiment: Light & dark box test in mice; type: in vivo; conditions: 3 mg/kg oral, 30 minutes before test
Text: Light & Dark Box Test in Mice [Costall B. Jones B J. Kelly […]. and Tomkins D M. Exploration of Mice in a Black and White Test Box: Validation as a Model of Anxiety. Pharmacology, Biochemistry & Behavior. 32 (3):777-85, 1989] The light-dark box test consists of a Perspex box which is divided into two compartments, two-thirds of which is painted white and the remaining third is painted black. Mice are able to move freely between the two compartments using a small gap in the wall separating the two compartments. The floor is marked with lines, which provided an index of motor activity of the animals (number of line crossings). A white light (60 W) is placed over the white compartment of the box to provide a brightly-lit area which the animals find aversive. Mice tend to escape from this area preferring to remain in the black area, returning only occasionally to explore the white area. […] CD-1 mice (25-30 g, Charles River, Italy) were placed individually into the centre of the white side of the black/white test box for the 5 min test period and the behaviour of the mice was recorded by remote video recording. Behaviour of the mice was assessed subsequently from the tape recordings by an observer who was unaware of the animals' treatment. Different parameters were assessed to estimate both the anxiolytic and the sedative effects of the compound tested. […]

[7] = chronic study, at 3 and 10 mg/kg oral

CNC1=Nc2ccc(Cl)cc2C(c2ccccc2)=[N+]([O-])C1 [CDP, chlordiazepoxide, reference compound]
Number of line crossings ([1]; positive control, single oral dose 4 mg/kg, n=14): 560.1 ± 29.6 | Time spent in active social interaction, % (change relative to vehicle) ([1]; positive control, single oral dose 4 mg/kg): 53.2% | Time spent in active social interaction ([1]; positive control, single oral dose 4 mg/kg 1 hour before testing, n=14): 124.4 ± 10.7 s

C[C@@H]1NC(C)(C)CO[C@@]1(O)c1cccc(Cl)c1 [Formula (I), (+)-(2S,3S)-2-(3-chlorophenyl)-3,5,5-trimethyl-2-morpholinol]
IC50 [2]: 9.3 ± 0.41 µM | IC50 [3]: > 30 µM | inhibition of serotonin uptake ([3]; at 30 μM): no inhibition | anxiogenic activity [4]: lack of anxiogenic activity

C[C@@H]1NC(C)(C)CO[C@@]1(O)c1cccc(Cl)c1 [Formula (I). HCl, (+)-(2S,3S)-2-(3-chlorophenyl)-3,5,5-trimethyl-2-morpholinol hydrochloride]
cytotoxicity [5]: No cytotoxicity was observed | Time spent in active social interaction ([1]; chronic study, 3 mg/kg oral twice a day 20 days + day 21, 45 min before test, n=14): 114.0 ± 11.5 s | Time spent in active social interaction ([1]; chronic study, 10 mg/kg oral twice a day 20 days + day 21, 45 min before test, n=10): 126.4 ± 13.8 s | Time spent in active social interaction ([1]; chronic study, 30 mg/kg oral twice a day 20 days + day 21, 45 min before test, n=14): 97.6 ± 8.7 s | effect on social interaction ([1]; chronic study, at 30 mg/kg oral): lack of effect on social interaction | effect on locomotor activity ([1]; chronic study, at 30 mg/kg oral, compared to vehicle): significant reduction in locomotor activity | anxiolytic-like effect in social interaction test [1, 7]: able to induce an anxiolytic-like effect | effect on locomotor activity [1, 7]: without any significant effects on locomotor activity | Number of line crossings ([1]; chronic study, 3 mg/kg oral, n=14): 587.0 ± 29.1 | Number of line crossings ([1]; chronic study, 10 mg/kg oral, n=10): 571.0 ± 44.1 | Number of line crossings ([1]; chronic study, 30 mg/kg oral, n=14): 476.2 ± 42.6 | anxiolytic-like effect in light & dark box test [6]: able to induce an anxiolytic-like effect
